According to paper PMC4888278, “Structural determinant for inducing RORgamma specific inverse agonism triggered by a synthetic benzoxazinone ligand” (BMC Structural Biology, 2016):
One block for each molecule: values may come before it.

Tests used:
RORγ [1] = system: RORγ; parameters: method as in PMID 24239186; details: SRC1 displacement FRET assay; cited from earlier work
[2] = biological target: T1, GAL4 fused to the LBD of RORα (Homo sapiens, UniProt P35398); experiment: GAL4 cellular luciferase reporter assay, GAL4 fused to LBD of RORα; format: cell-based
T1 construct: cells expressing GAL4 fused to the LBD of ROR α or β, respectively; expressed in transfected cells
T1 sequence (P35398 272-510 limits assumed): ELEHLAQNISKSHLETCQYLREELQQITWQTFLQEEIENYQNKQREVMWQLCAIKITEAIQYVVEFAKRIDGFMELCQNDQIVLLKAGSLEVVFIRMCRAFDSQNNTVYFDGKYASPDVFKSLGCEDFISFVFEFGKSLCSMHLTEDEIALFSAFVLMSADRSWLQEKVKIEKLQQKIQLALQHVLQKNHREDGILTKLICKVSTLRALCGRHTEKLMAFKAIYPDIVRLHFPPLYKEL
Procedure: (§1) FRET-based (Fluorescence Resonance Energy Transfer) assay and the GAL4 Reporter assay were performed as described previously. BIO592 and BIO399 were synthesized (Additional file 1) and belonged to a proprietary library where they were identified as RORγ activity modulators using the FRET-based assay.
(§2) In order to assess the in vivo selectivity profile of BIO399 a cellular reporter assay was implemented where the ligand binding domains of ROR α, β and γ were fused to the DNA binding domain of the transcriptional factor GAL4. The ROR-GAL4 fusion proteins were expressed in cells with the luciferase reporter gene under the control of a GAL4 promoter. […] The LBS of RORs share a high degree of similarity. However, the inverse agonism trigger of BIO399, residue Met358, is a leucine in both RORα and β. This selectivity profile for BIO399 is attributed to the shorter leucine side chain in RORα and β which would not reach the phenylalanine on the AF2 helix further underscoring the role of Met358 as a trigger for RORγ specific inverse agonism (Fig. 7a). Furthermore, RORα contains two phenylalanine residues in its LBS whereas RORβ and γ have a leucine in the same position (Fig. 6b). We hypothesize that the two phenylalanine residues in the LBS of RORα occlude the dihydrobenzoxazepinone ring system of BIO399 from binding it and responsible for the increase in […].

[3] = biological target: T2, GAL4 fused to the LBD of RORβ (Homo sapiens, UniProt Q92753); experiment: GAL4 cellular luciferase reporter assay, GAL4 fused to LBD of RORβ; format: cell-based
T2 construct: cells expressing GAL4 fused to the LBD of ROR α or β, respectively; expressed in transfected cells
T2 sequence (Q92753 222-460 limits assumed): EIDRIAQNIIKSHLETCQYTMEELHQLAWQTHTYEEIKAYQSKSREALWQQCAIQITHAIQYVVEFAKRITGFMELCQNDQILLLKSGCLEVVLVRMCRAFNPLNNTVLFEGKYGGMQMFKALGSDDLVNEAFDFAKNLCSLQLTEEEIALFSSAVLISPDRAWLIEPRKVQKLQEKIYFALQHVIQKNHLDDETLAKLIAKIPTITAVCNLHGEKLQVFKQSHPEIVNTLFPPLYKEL
Procedure: as §1, §2

RORγ [4] = biological target: T3, RORγ (Homo sapiens, UniProt P51449); experiment: FRET based assay monitoring coactivator peptide TRAP220 recruitment to RORγ; format: biochemical
T3 construct: sub-cloning residues 259 to 518 of a human RORγ cDNA; GST (PreScission site) (N); made in house; host or cells: Escherichia coli BL21 (DE3)
T3 sequence (P51449 259-518): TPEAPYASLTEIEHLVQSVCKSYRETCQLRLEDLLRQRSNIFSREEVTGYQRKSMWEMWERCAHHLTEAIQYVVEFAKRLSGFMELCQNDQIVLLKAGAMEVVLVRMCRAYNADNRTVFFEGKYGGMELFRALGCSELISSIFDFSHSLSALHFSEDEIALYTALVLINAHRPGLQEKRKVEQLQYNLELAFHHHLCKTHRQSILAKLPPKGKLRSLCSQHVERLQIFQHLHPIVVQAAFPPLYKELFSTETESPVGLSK
Procedure: as §1

RORγ-GAL4 fusion = biological target: T4, RORγ-GAL4 fusion (Homo sapiens, UniProt P51449); experiment: GAL4 cellular luciferase reporter assay, RORγ-GAL4 fusion; format: cell-based
T4 construct: expressed in transfected cells
T4 sequence (P51449 269-508 limits assumed): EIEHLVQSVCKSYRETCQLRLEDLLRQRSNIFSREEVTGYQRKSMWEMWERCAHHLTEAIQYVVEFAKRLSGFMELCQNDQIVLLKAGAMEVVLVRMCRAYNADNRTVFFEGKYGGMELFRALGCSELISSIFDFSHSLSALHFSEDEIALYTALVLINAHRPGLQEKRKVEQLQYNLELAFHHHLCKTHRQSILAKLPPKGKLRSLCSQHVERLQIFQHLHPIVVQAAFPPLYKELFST
Procedure: as §1, §2

[5] = biological target: T5, RORγ518 (human RORγ ligand binding domain, residues 259-518) (human, UniProt P51449 259-518); experiment: crystal structure; RORγ518 8 mg/ml with 0.5 mM EBI96 and 1 mM agonist BIO592; vapor diffusion, 0.1 M HEPES pH 8.0, 25 % PEG3350, 0.2 M NaCl, 18 °C; 2.63 Å, P21, four ternary complexes in the asymmetric unit; details: both partners purified
T5 construct: Cloned in pGEX-6P; GST removed with PreScission Protease before SEC, crystallisation and proteolysis; also called GST-RORγ518 (before cleavage); source: E. coli BL21 (DE3), purified (Glutathione Sepharose, PreScission Protease, Superdex 75); not shown: GST, N-terminal, cleaved
T5 sequence (looked up): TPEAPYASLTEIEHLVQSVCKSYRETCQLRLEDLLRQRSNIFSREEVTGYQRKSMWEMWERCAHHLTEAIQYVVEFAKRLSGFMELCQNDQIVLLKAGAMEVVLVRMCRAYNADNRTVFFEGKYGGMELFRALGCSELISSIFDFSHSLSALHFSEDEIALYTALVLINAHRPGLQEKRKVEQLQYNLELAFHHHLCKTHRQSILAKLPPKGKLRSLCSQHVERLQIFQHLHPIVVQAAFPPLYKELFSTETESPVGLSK

IC50 ([2]; GAL4 cell assay, RORα, N = 2): > 10000 nM | Selectivity ([2]; GAL4 cell assay, RORγ versus RORα): >235 X | fold selectivity over RORα ([2]; GAL4 reporter, RORγ versus RORα): > 235 fold | IC50 ([3]; GAL4 cell assay, RORβ, N = 2): > 1200 nM | Selectivity ([3]; GAL4 cell assay, RORγ versus RORβ): >28.2 X | fold selectivity over RORβ ([3]; GAL4 reporter, RORγ versus RORβ): > 28 fold | IC50 (RORγ [4]; inverse agonist, inhibition of coactivator recruitment in the authors' FRET assay): 4.7 nM | IC50 (RORγ-GAL4 fusion; GAL4 cell assay, RORγ, N = 6): 43 nM | IC50 (RORγ-GAL4 fusion; luciferase activity, cells expressing RORγ-GAL4 fusion): 42.5 nM
Molecule: CCN1C(=O)C(C)(C)COc2cc(N(CC(F)(F)F)S(=O)(=O)c3ccc(C)c(C)c3)ccc21 [BIO399, N-(9-Ethyl-7,7-dimethyl-8-oxo-6,7,8,9-tetrahydro-5-oxa-9-aza-benzocyclohepten-3-yl)-3,4-dimethyl-N-(2,2,2-trifluoro-ethyl)-benzenesulfonamide]

Emax (RORγ [4]; agonist, coactivator peptide TRAP220 recruitment): 130% | EC50 (RORγ [4]; agonist, increase of coactivator peptide TRAP220 recruitment to RORγ): 58 nM
Molecule: CCN1C(=O)COc2cc(N(CC(F)(F)F)S(=O)(=O)c3ccc(C)c(C)c3)ccc21 [BIO592, N-(4-ethyl-3-oxo-3,4-dihydro-2H-benzo[b][1,4]oxazin-7-yl)-3,4-dimethyl-N-(2,2,2-trifluoroethyl)benzenesulfonamide]

binding result [5]: binds
B1: coactivator peptide EBI96 (peptide)
peptide: EFPYLLSLLGEVSPQ
notes: source: synthetic peptide; bought: New England Peptide
